The values that follow come from ChEMBL document CHEMBL1201862, “PubChem BioAssay data set” (2004).

Among the test systems are Hs-578T; RPMI-8226; UACC-257; M14; SF-539; SF-295; MDA-N; NCI-H522; PC-3; MOLT-4; MDA-MB-231; SNB-19; EKVX; HOP-62; K562; UACC-62; 786-0; KM12; A549; DU-145.
What all share (test): DTP human tumour cell line panel, 48 h

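Following 48 hours of exposure in 96-well plates, responses at five concentrations were used to interpolate endpoints linearly. GI50 marks 50% less growth.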 Calls of active or inactive are those of the source. Cut-off read from the data, not from the text of the source: active = GI50 up to about 1.1 µM and inactive = higher. Bounds are passed on as bounds.

On to `NCCNS(=O)(=O)c1ccc(N)cc1`, for which the GI50 was 66.1 µM (inactive) in the experiment with Hs-578T; > 100 µM (inactive) in the experiment with RPMI-8226; > 100 µM (inactive) in the experiment on UACC-257; > 100 µM (inactive) in the experiment with M14; 49.1 µM (inactive) with SF-539; > 100 µM (inactive) with SF-295. The GI50 in the experiment with MDA-N, in the experiment on NCI-H522, in the experiment on PC-3, in the experiment with MOLT-4, with MDA-MB-231 and in the experiment on SNB-19 was > 100 µM (inactive) each time. For the same compound, the GI50 in the experiment on EKVX, with HOP-62, in the experiment with K562, in the experiment with UACC-62, in the experiment with 786-0 and in the experiment on KM12 was > 100 µM (inactive) in each case. Besides, the GI50 in the experiment with A549 and with DU-145 was > 100 µM (inactive) in each case.

Consider `Cc1c(CNc2ccc(Cl)c(Cl)c2Cl)cnc2nc(N)nc(N)c12`, for which the GI50 is 17.8 µM (inactive) with Hs-578T; 2.08 µM (inactive) in the experiment on RPMI-8226; 0.236 µM (active) in the experiment on UACC-257; 0.942 µM (active) in the experiment on M14; 0.483 µM (active) with SF-539; 0.065 µM (active) with SF-295. Further, the GI50 with MDA-N is 0.0515 µM (active); in the experiment on NCI-H522 it was 4.46 µM (inactive); in the experiment on PC-3 it was 2.58 µM (inactive); in the experiment with MOLT-4, 0.164 µM (active); with MDA-MB-231, 0.891 µM (active); in the experiment with SNB-19, 14.6 µM (inactive). Also, the GI50 with EKVX is 4.2 µM (inactive); in the experiment on HOP-62 it was 1.04 µM (active); in the experiment on K562, < 0.0132 µM (active); with UACC-62, 0.0771 µM (active); with 786-0 it was 0.0918 µM (active); in the experiment on KM12 it was 4.99 µM (inactive). Besides, the values for the GI50 in the experiment with A549 and in the experiment on DU-145 were 0.0352 µM (active) and 0.294 µM (active), respectively.

Consider `CCOC(=O)/C=C(\C(=O)OCC)n1cc(C)c(=O)n(Cc2cnnn2COCCOC(C)=O)c1=O`, for which the GI50 in the experiment on Hs-578T is 14.3 µM (inactive); in the experiment on RPMI-8226, 6.24 µM (inactive); in the experiment with UACC-257, 13.4 µM (inactive); in the experiment with M14 it was 20.7 µM (inactive); in the experiment on SF-539, 2.2 µM (inactive); with SF-295, 25.8 µM (inactive). Also, the GI50 in the experiment with MDA-N is 19.9 µM (inactive); in the experiment on NCI-H522 it was 1.21 µM (inactive); with PC-3, 16 µM (inactive); in the experiment on MOLT-4 it was 2.57 µM (inactive); in the experiment with MDA-MB-231, 19.8 µM (inactive); with SNB-19, 35.2 µM (inactive). Besides, the GI50 is 11.9 µM (inactive) in the experiment with EKVX; 22.2 µM (inactive) in the experiment on HOP-62; 3.4 µM (inactive) with K562; 15.4 µM (inactive) in the experiment with UACC-62; 3.93 µM (inactive) in the experiment with 786-0; 16.4 µM (inactive) in the experiment on KM12. Moreover, the GI50 was 21.6 µM (inactive) in the experiment on A549 and 21.2 µM (inactive) in the experiment on DU-145.

On to `O=C(Nc1ccccc1)c1cc2c(cc1Cl)Sc1nccn1S2(=O)=O`, for which the GI50 with Hs-578T was 22.8 µM (inactive); in the experiment on RPMI-8226 it was 19.8 µM (inactive); with UACC-257, 18.7 µM (inactive); in the experiment with M14, 16 µM (inactive); in the experiment on SF-539 it was 23 µM (inactive); in the experiment with SF-295, 41.5 µM (inactive). The GI50 in the experiment with MDA-N was 23.5 µM (inactive); in the experiment on NCI-H522, 21 µM (inactive); in the experiment with PC-3 it was 20.1 µM (inactive); with MOLT-4, 15.6 µM (inactive); in the experiment on MDA-MB-231, 27 µM (inactive); with SNB-19, > 100 µM (inactive). Besides, the GI50 is 24.2 µM (inactive) with EKVX; 16 µM (inactive) in the experiment with HOP-62; 28.2 µM (inactive) with K562; 17.6 µM (inactive) with UACC-62; 21.2 µM (inactive) in the experiment with 786-0; 18.6 µM (inactive) with KM12. In addition, the values for the GI50 in the experiment with A549 and in the experiment on DU-145 were 36.4 µM (inactive) and 18.9 µM (inactive), respectively.

For `O=[N+]([O-])/C(C(Cl)=C(Cl)Cl)=C(/Sc1ccccc1)N1CCOCC1`, the GI50 was 15.6 µM (inactive) in the experiment on Hs-578T; 2.62 µM (inactive) with RPMI-8226; 9.91 µM (inactive) with UACC-257; 3 µM (inactive) in the experiment on M14; 6.03 µM (inactive) in the experiment on SF-539; 19.5 µM (inactive) in the experiment on SF-295. In addition, the GI50 was 3.65 µM (inactive) with MDA-N; 4.31 µM (inactive) in the experiment on NCI-H522; 6.01 µM (inactive) in the experiment on PC-3; 2 µM (inactive) with MOLT-4; 5.12 µM (inactive) with MDA-MB-231; 6.75 µM (inactive) in the experiment on SNB-19. Besides, the GI50 in the experiment with EKVX is 9.75 µM (inactive); in the experiment with HOP-62 it was 17.5 µM (inactive); with K562, 1.74 µM (inactive); with UACC-62, 3.62 µM (inactive); in the experiment with 786-0, 2.28 µM (inactive); with KM12, 13.4 µM (inactive). Besides, the values for the GI50 in the experiment on A549 and in the experiment on DU-145 were 18.6 µM (inactive) and 12.6 µM (inactive), respectively.

Turning to `ClC(Cl)=C1C(=C(Cl)Cl)C(Cl)(Cl)C1(Cl)Cl`, the GI50 in the experiment with Hs-578T is 2.36 µM (inactive); in the experiment with RPMI-8226, 0.558 µM (active); in the experiment on UACC-257 it was 3.51 µM (inactive); in the experiment on M14 it was 1.06 µM (active); in the experiment on SF-539, 2.34 µM (inactive); in the experiment on SF-295, 2.48 µM (inactive). The GI50 in the experiment on MDA-N is 1.37 µM (inactive); with NCI-H522 it was 0.0612 µM (active); in the experiment with PC-3 it was 2.31 µM (inactive); with MOLT-4, 0.126 µM (active); with MDA-MB-231, 2.4 µM (inactive); with SNB-19, 12.5 µM (inactive). Moreover, the GI50 was 7.52 µM (inactive) in the experiment with EKVX; 8.18 µM (inactive) in the experiment on HOP-62; 0.443 µM (active) in the experiment on K562; 1.95 µM (inactive) in the experiment on UACC-62; 1.07 µM (active) in the experiment on 786-0; 4.9 µM (inactive) in the experiment with KM12. In addition, the GI50 in the experiment with A549 was 9.51 µM (inactive); in the experiment with DU-145 it was 10.7 µM (inactive).

Regarding `CC1=NC(C)(COC(=O)C2(C)NC(C)(CO)CO2)COC1=O` (stereo not given), the GI50 in the experiment with Hs-578T, with RPMI-8226, with UACC-257, in the experiment with M14, in the experiment on SF-539 and with SF-295 was > 100 µM (inactive) in each case. In addition, the GI50 in the experiment with MDA-N, with NCI-H522, in the experiment on PC-3, in the experiment on MOLT-4, in the experiment with MDA-MB-231 and in the experiment with SNB-19 was > 100 µM (inactive) throughout. In addition, the GI50 in the experiment with EKVX, in the experiment on HOP-62, in the experiment on K562, in the experiment on UACC-62, in the experiment with 786-0 and in the experiment on KM12 was > 100 µM (inactive) in each case. For the same compound, the GI50 in the experiment on A549 and in the experiment with DU-145 was > 100 µM (inactive) in each case.

With `N#Cc1cnn2c1n[n+]([O-])c1ccc(Cl)cc12`, the GI50 in the experiment with Hs-578T is 5.3 µM (inactive); in the experiment with RPMI-8226 it was 23.8 µM (inactive); in the experiment with UACC-257, 9.35 µM (inactive); in the experiment on M14, 8.13 µM (inactive); with SF-539, 18.2 µM (inactive); with SF-295, 14.7 µM (inactive). Besides, the GI50 in the experiment with MDA-N was 8.65 µM (inactive); with NCI-H522, 1.75 µM (inactive); in the experiment with PC-3 it was 14.7 µM (inactive); with MOLT-4 it was 7.31 µM (inactive); in the experiment on MDA-MB-231, 15.1 µM (inactive); in the experiment with SNB-19, 3.11 µM (inactive). In addition, the GI50 was 2.9 µM (inactive) in the experiment with EKVX; 15.2 µM (inactive) with HOP-62; 1.71 µM (inactive) in the experiment with K562; 4.49 µM (inactive) with UACC-62; 27.4 µM (inactive) in the experiment with 786-0; 25.6 µM (inactive) in the experiment with KM12. Moreover, the values for the GI50 with A549 and in the experiment on DU-145 were 14.1 µM (inactive) and 14.9 µM (inactive), respectively.

As for `COc1ccc(/C=C(\Cl)c2ccc(OC)c(OC)c2)cc1OC`, the GI50 in the experiment on Hs-578T was > 100 µM (inactive); with RPMI-8226, > 100 µM (inactive); in the experiment on UACC-257 it was > 100 µM (inactive); in the experiment with M14, > 100 µM (inactive); in the experiment with SF-539 it was > 100 µM (inactive); in the experiment with SF-295 it was > 91.8 µM (inactive). For the same compound, the GI50 in the experiment on MDA-N was > 100 µM (inactive); in the experiment with NCI-H522 it was 22.9 µM (inactive); with PC-3, > 100 µM (inactive); with MOLT-4, > 100 µM (inactive); with MDA-MB-231, > 100 µM (inactive); in the experiment on SNB-19, > 100 µM (inactive). Also, the GI50 in the experiment with EKVX is > 100 µM (inactive); with HOP-62, > 82.8 µM (inactive); in the experiment with K562 it was > 100 µM (inactive); with UACC-62, > 100 µM (inactive); in the experiment on 786-0, > 100 µM (inactive); with KM12, > 100 µM (inactive). The GI50 with A549 and in the experiment on DU-145 was > 100 µM (inactive) in each case.

For the compound `COC(=O)CN1Cc2cc(C)cc(c2O)CN(CC(=O)OC)Cc2cc(C)cc(c2O)CN(CC(=O)OC)Cc2cc(C)cc(c2O)CN(CC(=O)OC)Cc2cc(C)cc(c2O)C1`, the GI50 is 38.4 µM (inactive) with Hs-578T; 39 µM (inactive) in the experiment with RPMI-8226; 16.8 µM (inactive) in the experiment with UACC-257; 4.92 µM (inactive) in the experiment with M14; 12.8 µM (inactive) in the experiment on SF-539; 17.5 µM (inactive) in the experiment on SF-295. Further, the GI50 is > 50 µM (inactive) in the experiment with MDA-N; > 100 µM (inactive) with NCI-H522; 18.5 µM (inactive) with PC-3; 9.62 µM (inactive) in the experiment on MOLT-4; 26.7 µM (inactive) in the experiment on MDA-MB-231; 16 µM (inactive) with SNB-19. The GI50 with EKVX is 9.06 µM (inactive); with HOP-62, 9.51 µM (inactive); in the experiment on K562, 21.8 µM (inactive); in the experiment with UACC-62 it was 39.6 µM (inactive); in the experiment with 786-0, 10.2 µM (inactive); with KM12, 32.6 µM (inactive). The GI50 in the experiment on A549 was 18.4 µM (inactive); with DU-145 it was 8.17 µM (inactive).
